The text below walks through data of patent publication US20050165085A1, “Polymorphic forms of tegaserod base and salts thereof” (priority 2003, published 2005).

A short description of data set [1]: Heating of tegaserod maleate polymorphic forms, form after heating. The class given is physicochemical. The conditions noted are these: for Polymorphic transformation / thermal stability upon heating: statement in text, temperature not given. From the text: X-Ray powder diffraction data were obtained using by method known in the art using a SCINTAG powder X-Ray diffractometer model X'TRA equipped with a solid state detector. Copper radiation of 1.5418 Å was used. A round aluminum sample holder with zero background was used. All peak positions are within ±0.2 degrees two theta.

For data set [2] the following is noted: Physician's Desk Reference, 57th Ed., cited from earlier work.
Data set [3] in a line: Solubility of tegaserod acetate Form J compared with tegaserod base. In kind it is physicochemical. The settings on record: solvent not stated.

“Also recorded” adds a separate entry of the source.

Turning to `CCCCCNC(=N)N/N=C/c1c[nH]c2ccc(OC)cc12.O=C(O)/C=C\C(=O)O` [Form A, Tegaserod maleate, reference compound], the “Polymorphic transformation / thermal stability upon heating” value in data set [1] is “exhibits thermal stability at higher temperatures”.
Regarding `CCCCCNC(=N)N/N=C/c1c[nH]c2ccc(OC)cc12.O=C(O)/C=C\C(=O)O` [Form B1, Tegaserod maleate], in data set [1] (assumed from DSC curves, all forms show the melting peak of Form A), the “Polymorphic transformation upon heating, assumed from DSC curves” value was “transform to Form A upon heating”.
In the case of `CCCCCNC(=N)N/N=C/c1c[nH]c2ccc(OC)cc12.O=C(O)/C=C\C(=O)O` [Form B2, Tegaserod maleate], the “Polymorph form after heating” value in data set [1] (2 hr. at 80 deg.) is “B + C + A”; in data set [1] (2 hr. at 100 deg.) it was “B + C + A”; in data set [1] (2 hr. at 120 deg.), “C + A”; in data set [1] (2 hr. at 140 deg., listed as B2) it was “C + A”. In data set [1], the “Polymorphic transformation / thermal stability upon heating” value is listed as “transform to Form A upon heating”.
Take `CCCCCNC(=N)N/N=C/c1c[nH]c2ccc(OC)cc12.O=C(O)/C=C\C(=O)O` [Form B, Tegaserod maleate]: the “Polymorph form after heating” value in data set [1] (2 hr. at 100 deg., listed as B (wet)) is “B > C + A”; in data set [1] (2 hr. at 120 deg., listed as B (wet)) it was “A > C”. The “Polymorphic transformation / thermal stability upon heating” value in data set [1] is recorded as “transform to Form C upon heating before it transforms to Form A”; in data set [1] (listed as B), “transform to Form A upon heating”.
In the case of `CCCCCNC(=N)N/N=C/c1c[nH]c2ccc(OC)cc12.O=C(O)/C=C\C(=O)O` [Form C, Tegaserod maleate], in data set [1] (2 hr. at 140 deg., listed as C), the “Polymorph form after heating” value was “C > A”. For the same compound, the “Polymorphic transformation / thermal stability upon heating” value in data set [1] (listed as C) is “transform to Form A upon heating”.
As for `CCCCCNC(=N)N/N=C/c1c[nH]c2ccc(OC)cc12.O=C(O)/C=C\C(=O)O` [Form D, Tegaserod maleate], in data set [1], the “Polymorphic transformation / thermal stability upon heating” value was “transformation to Form A; also recorded: transforms to Form A upon heating”.
In the case of `CCCCCNC(=N)N/N=C/c1c[nH]c2ccc(OC)cc12.O=C(O)/C=C\C(=O)O` [tegaserod as the maleate salt, Tegaserod maleate], the Solubility in ethanol result in data set [2] (ethanol) was “slightly soluble”. In addition, the Solubility in water entry in data set [2] (water) is on record as “very slightly soluble”.
Regarding “Tegaserod acetate [Tegaserod acetate Form J]”, the “Solubility relative to tegaserod base” value in data set [3] is “less soluble than tegaserod base”.
